# Target: T1, GPR65 (Homo sapiens, UniProt Q8IYL9)
# T1 construct: GPR65 overexpressed in A375 cells (rCD2-GPR65 tandem lentivector)
# Experiment: HTRF cAMP induction in GPR65-overexpressing A375 cells ([…] agonist, pH […]), blocked by GPR65 antagonists
# Assay type: cell-based
# T1 sequence (Q8IYL9 whole entry): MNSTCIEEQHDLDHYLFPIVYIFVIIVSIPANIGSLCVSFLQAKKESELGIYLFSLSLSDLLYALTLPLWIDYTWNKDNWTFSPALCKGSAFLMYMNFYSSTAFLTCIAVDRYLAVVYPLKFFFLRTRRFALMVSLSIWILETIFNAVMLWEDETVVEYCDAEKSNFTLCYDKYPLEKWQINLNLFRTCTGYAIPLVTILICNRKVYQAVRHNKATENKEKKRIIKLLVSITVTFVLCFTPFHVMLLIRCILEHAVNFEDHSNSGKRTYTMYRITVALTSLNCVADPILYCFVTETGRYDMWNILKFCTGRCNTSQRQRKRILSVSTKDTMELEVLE
smiles,measurement,value
"CN1N=C(SCc2ccc(Cl)cc2Cl)Sc2c1cnn(C)c2=O [BTB09089, 3-[(2,4-dichlorobenzyl)thio]-1,6-dimethyl-5,6-dihydro-1H-pyridazino [4,5-e][1,3,4]thiadiazin-5-one]","HTRF cAMP induction in GPR65-overexpressing A375 cells (1 μM agonist, pH 7.5), b",capacity to inhibit cAMP biosynthesis upon GPR65 activation by BTB09089

# From paper PMC11525786, “In silico and pharmacological evaluation of GPR65 as a cancer immunotherapy target regulating T-cell functions” (Frontiers in Immunology, 2024)
